Reference: ChEMBL document CHEMBL1201862, “PubChem BioAssay data set” (2004)
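Assay format: 96-well plates, 48-hour exposure. The concentration for 50% growth inhibition is given as GI50.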 Calls of active or inactive are those of the source. Rule as the data show it: active = GI50 up to about 1.1 µM and inactive = higher.

Tests used:
Assay in all cases: DTP human tumour cell line panel, 48 h
[1] = test system: DU-145
[2] = test system: IGROV-1
[3] = test system: HOP-62
[4] = test system: 786-0
[5] = test system: PC-3
[6] = test system: SF-295
[7] = test system: SK-MEL-2
[8] = test system: Hs-578T
[9] = test system: TK-10
[10] = test system: HL-60
[11] = test system: NCI/ADR-RES
[12] = test system: OVCAR-3
[13] = test system: NCI-H460
[14] = test system: MOLT-4
[15] = test system: MCF7
[16] = test system: OVCAR-5
[17] = test system: SNB-19
[18] = test system: EKVX
[19] = test system: CAKI-1
[20] = test system: MDA-N
[21] = test system: MDA-MB-231
[22] = test system: COLO 205
[23] = test system: Malme-3M
[24] = test system: SF-539
[25] = test system: LOX IMVI
[26] = test system: RXF 393
[27] = test system: SK-MEL-5
[28] = test system: HCT-15
[29] = test system: U-251
[30] = test system: OVCAR-8
[31] = test system: OVCAR-4
[32] = test system: CCRF-CEM
[33] = test system: SK-MEL-28
[34] = test system: SK-OV-3
[35] = test system: T47D
[36] = test system: RPMI-8226
[37] = test system: A549
[38] = test system: K562
[39] = test system: HCT-116
[40] = test system: KM12
[41] = test system: ACHN
[42] = test system: NCI-H522
[43] = test system: SR
[44] = test system: UACC-257
[45] = test system: HCC 2998
[46] = test system: SF-268
[47] = test system: HT-29
[48] = test system: UACC-62
[49] = test system: M14
[50] = test system: NCI-H23
[51] = test system: BT-549
[52] = test system: NCI-H226
[53] = test system: A498
[54] = test system: MDA-MB-435
[55] = test system: SN12C

## N#Cc1[nH]c(=O)n(-c2ccc(Cl)cc2)c1N
[1]
  GI50: > 10 µM (inactive)
[2]
  GI50: > 10 µM (inactive)
[3]
  GI50: > 10 µM (inactive)
[4]
  GI50: > 10 µM (inactive)
[5]
  GI50: > 10 µM (inactive)
[6]
  GI50: > 10 µM (inactive)
[7]
  GI50: > 10 µM (inactive)
[8]
  GI50: > 10 µM (inactive)
[9]
  GI50: > 10 µM (inactive)
[10]
  GI50: > 10 µM (inactive)
[11]
  GI50: > 10 µM (inactive)
[12]
  GI50: > 10 µM (inactive)
[13]
  GI50: > 10 µM (inactive)
[14]
  GI50: > 10 µM (inactive)
[15]
  GI50: > 10 µM (inactive)
[16]
  GI50: > 10 µM (inactive)
[17]
  GI50: > 10 µM (inactive)
[18]
  GI50: > 10 µM (inactive)
[19]
  GI50: 0.00637 µM (active)
[20]
  GI50: > 10 µM (inactive)
[21]
  GI50: > 10 µM (inactive)
[22]
  GI50: > 10 µM (inactive)
[23]
  GI50: 8.79 µM (inactive)
[24]
  GI50: > 10 µM (inactive)
[25]
  GI50: > 10 µM (inactive)
[26]
  GI50: > 10 µM (inactive)
[27]
  GI50: > 10 µM (inactive)
[28]
  GI50: > 10 µM
[29]
  GI50: > 10 µM (inactive)
[30]
  GI50: > 10 µM (inactive)
[31]
  GI50: > 10 µM (inactive)
[32]
  GI50: > 10 µM (inactive)
[33]
  GI50: > 10 µM (inactive)
[34]
  GI50: > 10 µM (inactive)
[35]
  GI50: > 10 µM (inactive)
[36]
  GI50: > 10 µM (inactive)
[37]
  GI50: > 10 µM (inactive)
[38]
  GI50: > 10 µM (inactive)
[39]
  GI50: > 10 µM (inactive)
[40]
  GI50: > 10 µM (inactive)
[41]
  GI50: > 10 µM (inactive)
[42]
  GI50: > 10 µM (inactive)
[43]
  GI50: > 10 µM (inactive)
[44]
  GI50: > 10 µM (inactive)
[45]
  GI50: > 10 µM (inactive)
[46]
  GI50: > 10 µM (inactive)
[47]
  GI50: > 10 µM (inactive)
[48]
  GI50: > 10 µM (inactive)
[49]
  GI50: > 10 µM (inactive)
[50]
  GI50: > 10 µM (inactive)
[51]
  GI50: > 10 µM (inactive)
[52]
  GI50: > 10 µM (inactive)
[53]
  GI50: > 10 µM (inactive)
[54]
  GI50: > 10 µM (inactive)
[55]
  GI50: > 10 µM (inactive)
